We go through 16 compounds from patent publication US20240409538A1, “SUBSTITUTED TRIAZOLOHETEROARYL COMPOUNDS AS USP1 INHIBITORS AND THE USE THEREOF” (IMPACT THERAPEUTICS (SHANGHAI), INC., priority 2021, published 2024).

Test [1] concerns BRCA mutant human breast cancer MDA-MB-436 cell line. Briefly: Growth inhibition of MDA-MB-436 cells, CTG (Celltiter-Glo) method. Particulars: MDA-MB-436, 168 h, 7 days incubation, read-out: IC50 (nM), inhibition of proliferation of MDA-MB-436 cells, CTG method. Type of test: cell-based. The protocol:
(§1) The cells were cultured in complete medium (DMEM medium+10% FBS+Insulin+glutathione). When the confluence reached about 80%, cells were digested and gently dispensed from the bottom of the dish with a 1 mL pipette. Cell suspension was collected and centrifuged at 500 rpm for 3 min. The supernatant was discarded, and the cell pellet were re-suspended in complete medium. The cells were seeded into a culture dish at an appropriate proportion, and then cultured in a 5% CO2 incubator at 37° C. The assay was carried out when the cells were in optimum condition and the confluence was reached 80%. Cells in the logarithmic growth phase were taken to centrifugate, and the culture supernatant was removed. The cells were resuspended in refresh complete medium and counted. The resuspended cells were seeded at 3000/well in a 96-well plate and incubated at 37° C., 5% CO2 incubator overnight. The compound was prepared as below: 1000× dilution tested compound solution to 40× test compound solution by adding 5 μL 1000× compound solution to 120 μL Medium (25-fold dilution). The solution was mixed by oscillation, 0.1% DMSO was used as the control.
(§2) The next day, the 96-well plate inoculated with cells was taken out from the incubator, and the culture supernatant was removed. Then fresh medium of 195 uL/well and 5 μL/well of 40× test compound solution as mentioned above were added into the 96 well plate, respectively. Finally, the plate was incubated for 7 days in a 37° C. 5% CO2 incubator. The medium containing compound was changed on the fourth day.
CTG Method: After 7 days, 100 μL Celltiter-Glo reagent was added to each well, and then the plate was shake for 2 minutes to fully lysate. Then the plate was incubated at room temperature for 10 minutes, and the chemiluminescence values were read by plate reader.
The inhibitory activity of compounds on cell proliferation was plotted using cell survival rate against the compound concentration as coordinates. Cell inhibition rate %=(Lumcompound−LumDMSO)/(Lummedium−LumDMSO)×100. Lum refers to the chemiluminescence value.
XL Fit software was used to Fit nonlinear s-curve regression to Fit the data to obtain dose-effect curves, from which IC50 values were calculated. Y=Bottom+(Top−Bottom)/(1+10^((Log IC50−X)×slope)), Where Y is the cell inhibition rate, X is the compound concentration, Bottom is the lowest inhibition rate. Top is the highest inhibition rate.
Table 2 summarizes the inhibitory effect data (IC50) of the compounds on the proliferation of human breast cancer cells MDA-MB-436 determined by CTG method.
For orientation: In ATP-based viability assays light output follows the ATP content of the culture.

Test [2] has the same test system. Briefly: Growth inhibition of MDA-MB-436 cells, CCK-8 method. Conditions: MDA-MB-436, 168 h, 7 days incubation, read-out: IC50 (nM), inhibition of proliferation of MDA-MB-436 cells, CCK-8 method. Type of test: cell-based. Here is the method: as §1, §2
CCK Method: After 7 days, 20 μL of CCK-8 was added to each well and shaken gently, then was cultured for 4 hours. The plate was shaken for 5 min after incubation, the absorbance values of 450 nm or 650 nm wavelengths were recorded respectively (OD=absorbance value of 450 nm−absorbance value of 650 nm) by using the multifunction readout instrument.
Data were analyzed by software GraphPad Prism 6.0. The inhibitory activity of compounds on cell proliferation was plotted using cell survival rate against the compound concentration as coordinates. Cell survival rate %=(ODcompound−ODbackground)/(ODDMSO−ODbackground)×100. The IC50 value was fitted by the s-shaped dose response curve equation: Y=100/(1+10^(log C−log IC50)), and C was the compound concentration.
Table 3 summarizes the inhibitory effect data (IC50) of the compounds on the proliferation of human breast cancer cells MDA-MB-436 determined by CCK-8 method.

In test [3] the target is USP1/UAF1 (Homo sapiens (Human), UniProt O94782). In words: USP1/UAF1 activity, ubiquitin-rhodamine110-glycine (Ub-Rho) assay. Conditions: 0.1 nM USP1/UAF1, 100 nM Ub-Rho, 120 minutes; read-out: IC50 (nM), inhibitory effects on USP1/UAF1 activity. Type of test: biochemical. Here is the method: USP1/UAF1 activity was determined by using ubiquitin-rhodamine110-glycine (Ub-Rho; Boston Biochem) assay. Enzymatic reactions were conducted in an assay buffer (50 mM Tris-HCl, pH 7.8, 0.5 mM EDTA, 100 mM NaCl, 1 mM DTT, 0.01 BSA, and 0.01% Tween-20) that contained 0.1 nM USP1/UAF1. Each individual compound was tested at ten concentrations in the range of 0.0005 to 10 μM. The plates were incubated for 15 min to attain equilibrium, and then the enzymatic reaction was initiated by dispensing 10 μL of Ub-Rho solution (100 nM final concentration). After treating 120 minutes with Ub-Rho solution, the rhodamine fluorescence was acquired using a 480 nm excitation/540 nm emission filter set by using Envision instrument. The inhibition rate of the compound to USP1/UAF1 enzyme activity was calculated according to the following formula.
Sequence of USP1/UAF1 (O94782 whole entry): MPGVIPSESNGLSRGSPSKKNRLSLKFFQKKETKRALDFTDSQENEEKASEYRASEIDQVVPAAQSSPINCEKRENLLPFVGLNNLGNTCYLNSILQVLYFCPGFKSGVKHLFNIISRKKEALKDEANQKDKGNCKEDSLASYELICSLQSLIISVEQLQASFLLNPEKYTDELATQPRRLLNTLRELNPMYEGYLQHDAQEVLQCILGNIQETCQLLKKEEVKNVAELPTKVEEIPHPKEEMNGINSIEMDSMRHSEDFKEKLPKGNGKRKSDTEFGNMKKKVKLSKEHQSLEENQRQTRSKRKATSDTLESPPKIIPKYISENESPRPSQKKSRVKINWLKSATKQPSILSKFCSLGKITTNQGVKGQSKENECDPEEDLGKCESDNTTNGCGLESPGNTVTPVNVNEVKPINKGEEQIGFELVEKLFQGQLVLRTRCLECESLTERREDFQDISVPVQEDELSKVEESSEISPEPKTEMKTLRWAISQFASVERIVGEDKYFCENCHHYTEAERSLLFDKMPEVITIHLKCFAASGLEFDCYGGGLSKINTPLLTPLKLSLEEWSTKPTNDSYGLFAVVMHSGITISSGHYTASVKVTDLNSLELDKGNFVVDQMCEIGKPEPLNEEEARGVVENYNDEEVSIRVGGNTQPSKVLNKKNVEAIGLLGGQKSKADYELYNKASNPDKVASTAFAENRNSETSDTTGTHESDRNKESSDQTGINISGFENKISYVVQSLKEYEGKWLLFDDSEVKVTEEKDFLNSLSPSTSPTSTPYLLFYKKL
Sequence of USP1/UAF1 (Q8TAF3 whole entry partner): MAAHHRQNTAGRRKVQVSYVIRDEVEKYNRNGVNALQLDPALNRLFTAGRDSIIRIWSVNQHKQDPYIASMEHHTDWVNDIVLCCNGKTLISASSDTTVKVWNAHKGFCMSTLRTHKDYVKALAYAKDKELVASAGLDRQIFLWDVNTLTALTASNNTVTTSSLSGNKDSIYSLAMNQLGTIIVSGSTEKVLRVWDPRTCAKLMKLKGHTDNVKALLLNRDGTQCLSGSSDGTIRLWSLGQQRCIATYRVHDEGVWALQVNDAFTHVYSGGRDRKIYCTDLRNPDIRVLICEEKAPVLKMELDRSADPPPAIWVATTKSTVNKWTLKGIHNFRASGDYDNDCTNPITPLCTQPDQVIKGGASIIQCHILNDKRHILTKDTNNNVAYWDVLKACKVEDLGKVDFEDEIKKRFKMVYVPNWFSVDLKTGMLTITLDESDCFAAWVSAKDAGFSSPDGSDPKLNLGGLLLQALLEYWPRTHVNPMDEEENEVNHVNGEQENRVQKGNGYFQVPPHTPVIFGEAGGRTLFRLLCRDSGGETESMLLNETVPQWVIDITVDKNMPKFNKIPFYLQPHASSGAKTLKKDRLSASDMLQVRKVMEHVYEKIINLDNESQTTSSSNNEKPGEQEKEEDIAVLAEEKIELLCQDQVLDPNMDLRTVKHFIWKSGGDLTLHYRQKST
IC50 value is obtained by fitting the s-shaped dose response curve equation by using XL Fit software. The curve equation is Y=100/(1+10^(log C−log IC50)). C is the compound concentration.

The structures appear in SMILES notation.

In the case of `Cc1cn(C)c(-c2ccc(Cc3cccn4nc(-c5ccccc5C(C)C)nc34)cc2)n1` [Example 1, 8-(4-(1,4-dimethyl-1H-imidazol-2-yl)benzyl)-2-(2-isopropylphenyl)-[1,2,4]triazolo[1,5-a]pyridine], the IC50 in test [1] is 161 nM.

As for `COc1ccccc1-c1nc2c(Cc3ccc(-c4nc(C)cn4C)cc3)cccn2n1` [Example 2, 8-(4-(1,4-dimethyl-1H-imidazol-2-yl)benzyl)-2-(2-methoxyphenyl)-[1,2,4]triazolo[1,5-a]pyridine], the IC50 in test [1] is above 1000 nM. As to `CC(C)c1ccccc1-c1nc2c(Cc3ccc(-c4nc(C(F)(F)F)cn4C)cc3)cccn2n1` [Example 3, 2-(2-isopropylphenyl)-8-(4-(1-methyl-4-(trifluoromethyl)-1H-imidazol-2-yl)benzyl)-[1,2,4]triazolo[1,5-a]pyridine], the values for the IC50 in test [1] and in test [2] were 57.6 nM and 111 nM, respectively. For `COc1ncnc(C2CC2)c1-c1nc2c(Cc3ccc(-c4nc(C(F)(F)F)cn4C(C)C)cc3)cccn2n1` [Example 4, 2-(4-cyclopropyl-6-methoxypyrimidin-5-yl)-8-(4-(1-isopropyl-4-(trifluoromethyl)-1H-imidazol-2-yl)benzyl)-[1,2,4]triazolo[1,5-a]pyridine], the results for the IC50 in test [2] and in test [3] were 25.5 nM and 66.6 nM, respectively. Regarding `COc1ncnc(C2CC2)c1-c1nc2c(Cc3ccc(-c4nc(C(F)(F)F)cn4C)cc3)cccn2n1` [Example 5, 2-(4-cyclopropyl-6-methoxypyrimidin-5-yl)-8-(4-(1-methyl-4-(trifluoromethyl)-1H-imidazol-2-yl)benzyl)-[1,2,4]triazolo[1,5-a]pyridine], the IC50 stood at 38.8 nM in test [2] and 39.1 nM in test [3]. As to `COc1ncnc(C2CC2)c1-c1nc2c(Cc3ccc(-n4nc(C(F)(F)F)cc4C)cc3)cccn2n1` [Example 6, 2-(4-cyclopropyl-6-methoxypyrimidin-5-yl)-8-(4-(5-methyl-3-(trifluoromethyl)-1H-pyrazol-1-yl)benzyl)-[1,2,4]triazolo[1,5-a]pyridine], the figures for the IC50 in test [2] and in test [3] were 28.3 nM and 460 nM, respectively. Regarding `COc1ncnc(C2CC2)c1-c1nc2cccc(Cc3ccc(-c4nc(C(F)(F)F)cn4C)cc3)n2n1` [Example 14, 2-(4-cyclopropyl-6-methoxypyrimidin-5-yl)-5-(4-(1-methyl-4-(trifluoromethyl)-1H-imidazol-2-yl)benzyl)-[1,2,4]triazolo[1,5-a]pyridine], the IC50 amounted to 21.6 nM in test [1], 26.4 nM in test [2] and 30.6 nM in test [3]. Turning to `Cc1cnn(C(C)C)c1-c1nc2c(Cc3ccc(-c4nc(C(F)(F)F)cn4C)cc3)cccn2n1` [Example 16, 2-(1-isopropyl-4-methyl-1H-pyrazol-5-yl)-8-(4-(1-methyl-4-(trifluoromethyl)-1H-imidazol-2-yl)benzyl)-[1,2,4]triazolo[1,5-a]pyridine], the IC50 in test [2] stood at 13.2 nM; in test [3], 15.8 nM. Turning to `Cc1cnn(C(C)C)c1-c1nc2c(Cc3ccc(-c4nc(C(F)(F)F)cn4C)cc3)ccnn2n1` [Example 17, 2-(1-isopropyl-4-methyl-1H-pyrazol-5-yl)-8-(4-(1-methyl-4-(trifluoromethyl)-1H-imidazol-2-yl)benzyl)-[1,2,4]triazolo[1,5-b]pyridazine], the IC50 in test [2] is 39.5 nM. Regarding `COc1ncnc(C2CC2)c1-c1nc2c(Cc3ccc(-c4nc(C(F)(F)F)cn4C)cc3)cncn2n1` [Example 19, 2-(4-cyclopropyl-6-methoxypyrimidin-5-yl)-8-(4-(1-methyl-4-(trifluoromethyl)-1H-imidazol-2-yl)benzyl)-[1,2,4]triazolo[1,5-c]pyrimidine], the IC50 is 44.8 nM in test [2] and 138 nM in test [3].

`COc1ncnc(C2CC2)c1-c1nc2cncc(Cc3ccc(-c4nc(C(F)(F)F)cn4C)cc3)n2n1` [Example 22, 2-(4-cyclopropyl-6-methoxypyrimidin-5-yl)-5-(4-(1-methyl-4-(trifluoromethyl)-1H-imidazol-2-yl)benzyl)-[1,2,4]triazolo[1,5-a]pyrazine]: the results for the IC50 in test [1] and in test [3] were 227 nM and 147 nM, respectively. For `COc1ncnc(C2CC2)c1-c1nc2nccc(Cc3ccc(-c4nc(C(F)(F)F)cn4C)cc3)n2n1` [Example 23, 2-(4-cyclopropyl-6-methoxypyrimidin-5-yl)-7-(4-(1-methyl-4-(trifluoromethyl)-1H-imidazol-2-yl)benzyl)-[1,2,4]triazolo[1,5-a]pyrimidine], in that order: 496 nM and 175 nM.

Turning to `COc1ncnc(OC)c1-c1nc2c(Cc3ccc(-c4nc(C(F)(F)F)cn4C)cc3)cccn2n1` [Example 27, 2-(4,6-dimethoxypyrimidin-5-yl)-8-(4-(1-methyl-4-(trifluoromethyl)-1H-imidazol-2-yl)benzyl)-[1,2,4]triazolo[1,5-a]pyridine], the IC50 in test [1] worked out at 158 nM. `COc1ncnc(C2CCC2)c1-c1nc2c(Cc3ccc(-c4nc(C(F)(F)F)cn4C)cc3)cccn2n1` [Example 28, 2-(4-cyclobutyl-6-methoxypyrimidin-5-yl)-8-(4-(1-methyl-4-(trifluoromethyl)-1H-imidazol-2-yl)benzyl)-[1,2,4]triazolo[1,5-a]pyridine]: the IC50 came to 40.6 nM in test [1] and 26 nM in test [3].

Take `COc1ncnc(C2CC2)c1-c1nc2ccnc(Cc3ccc(-c4nc(C(F)(F)F)cn4C4CC4)cc3)n2n1` [Example 40, 5-(4-(1-cyclopropyl-4-(trifluoromethyl)-1H-imidazol-2-yl)benzyl)-2-(4-cyclopropyl-6-methoxypyrimidin-5-yl)-[1,2,4]triazolo[1,5-c]pyrimidine]: the figures for the IC50 in test [1] and in test [3] were 21.1 nM and 19.9 nM, respectively.

For the compound `COc1ncnc(C2CC2)c1-c1nc2ccnc(Cc3ccc(-c4nc(C(F)(F)F)cn4C)c(F)c3)n2n1` [Example 41, 2-(4-cyclopropyl-6-methoxypyrimidin-5-yl)-5-(3-fluoro-4-(1-methyl-4-(trifluoromethyl)-1H-imidazol-2-yl)benzyl)-[1,2,4]triazolo[1,5-c]pyrimidine], the IC50 in test [1] was found to be 55.3 nM; in test [3], 34.2 nM.
